# Laboratory results as given in patent publication US10590078B2, “Sodium channel blockers” (Daewoong Pharmaceutical Co., Ltd., priority 2015, dated 2020).
# Biological target: human sodium ion channel 1.7 (hNav1.7) (Homo sapiens, UniProt Q15858)
# Test: Blocking effect against sodium ion channel Nav1.7, IonFlux16 auto patch clamp in hNav1.7 HEK293 cells
# Assay type: cell-based
# Settings: hNav1.7 HEK293 cells; inhibition of peak current after 50 seconds treatment; eight concentrations; read-out: IC50
# Sequence of human sodium ion channel 1.7 (hNav1.7) (Q15858 whole entry): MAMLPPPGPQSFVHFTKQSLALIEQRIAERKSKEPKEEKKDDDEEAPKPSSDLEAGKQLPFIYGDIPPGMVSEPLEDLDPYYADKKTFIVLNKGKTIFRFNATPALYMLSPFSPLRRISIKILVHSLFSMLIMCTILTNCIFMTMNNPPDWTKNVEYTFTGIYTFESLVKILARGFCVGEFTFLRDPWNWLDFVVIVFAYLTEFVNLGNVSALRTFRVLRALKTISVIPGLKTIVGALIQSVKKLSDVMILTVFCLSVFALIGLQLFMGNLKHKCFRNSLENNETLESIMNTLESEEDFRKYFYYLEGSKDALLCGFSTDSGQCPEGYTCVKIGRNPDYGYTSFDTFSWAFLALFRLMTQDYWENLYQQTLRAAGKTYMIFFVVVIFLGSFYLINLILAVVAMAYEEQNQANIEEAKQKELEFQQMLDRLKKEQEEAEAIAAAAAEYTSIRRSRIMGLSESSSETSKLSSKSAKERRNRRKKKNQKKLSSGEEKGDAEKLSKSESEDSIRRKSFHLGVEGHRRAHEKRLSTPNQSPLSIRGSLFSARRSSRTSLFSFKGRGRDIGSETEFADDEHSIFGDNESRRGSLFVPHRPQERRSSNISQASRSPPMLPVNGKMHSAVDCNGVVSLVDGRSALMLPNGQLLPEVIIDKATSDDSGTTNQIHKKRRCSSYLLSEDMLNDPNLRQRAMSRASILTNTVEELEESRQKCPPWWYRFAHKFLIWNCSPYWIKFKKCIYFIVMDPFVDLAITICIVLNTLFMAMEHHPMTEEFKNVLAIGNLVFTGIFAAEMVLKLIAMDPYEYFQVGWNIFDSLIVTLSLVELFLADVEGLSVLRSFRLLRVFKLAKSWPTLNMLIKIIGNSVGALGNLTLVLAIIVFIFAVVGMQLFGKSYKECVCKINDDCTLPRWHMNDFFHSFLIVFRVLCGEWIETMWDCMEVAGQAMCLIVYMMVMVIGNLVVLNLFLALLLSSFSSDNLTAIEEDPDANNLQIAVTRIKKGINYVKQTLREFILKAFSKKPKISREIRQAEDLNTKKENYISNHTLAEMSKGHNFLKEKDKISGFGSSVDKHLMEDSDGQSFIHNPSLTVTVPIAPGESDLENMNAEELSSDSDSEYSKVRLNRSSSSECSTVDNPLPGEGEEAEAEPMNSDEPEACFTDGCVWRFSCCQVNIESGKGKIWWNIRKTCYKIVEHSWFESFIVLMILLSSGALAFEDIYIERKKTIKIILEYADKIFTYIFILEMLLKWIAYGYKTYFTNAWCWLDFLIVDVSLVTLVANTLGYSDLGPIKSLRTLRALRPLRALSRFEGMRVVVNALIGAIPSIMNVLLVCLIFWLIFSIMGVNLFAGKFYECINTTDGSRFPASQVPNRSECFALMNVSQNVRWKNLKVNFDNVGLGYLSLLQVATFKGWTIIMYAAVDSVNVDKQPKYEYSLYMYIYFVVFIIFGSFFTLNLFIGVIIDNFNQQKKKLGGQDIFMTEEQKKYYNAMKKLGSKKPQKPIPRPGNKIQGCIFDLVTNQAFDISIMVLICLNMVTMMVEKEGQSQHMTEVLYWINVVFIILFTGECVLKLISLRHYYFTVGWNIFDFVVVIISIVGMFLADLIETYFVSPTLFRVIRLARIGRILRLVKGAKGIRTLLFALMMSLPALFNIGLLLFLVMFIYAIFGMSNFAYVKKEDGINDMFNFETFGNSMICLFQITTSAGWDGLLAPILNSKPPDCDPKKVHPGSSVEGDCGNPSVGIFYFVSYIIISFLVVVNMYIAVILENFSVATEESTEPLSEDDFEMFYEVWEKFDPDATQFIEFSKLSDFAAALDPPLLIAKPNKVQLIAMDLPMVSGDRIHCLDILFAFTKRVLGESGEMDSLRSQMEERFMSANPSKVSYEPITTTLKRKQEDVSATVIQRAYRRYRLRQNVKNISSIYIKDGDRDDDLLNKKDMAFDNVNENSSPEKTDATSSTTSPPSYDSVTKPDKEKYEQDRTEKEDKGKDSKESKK
row,Structure (SMILES),IC50 [µM]
1,"Cc1nn(-c2cc(F)c(S(=O)(=O)Nc3cscn3)cc2Cl)c2ccc(Cl)cc12 [Example 277, 5-chloro-4-(5-chloro-3-methyl-1H-indazol-1-yl)-2-fluoro-N-(thiazol-4-yl)benzenesulfonamide]",0.33
2,"N#Cc1cc(S(=O)(=O)Nc2cscn2)ccc1-n1nc(Cl)c2cc(C(F)(F)F)ccc21 [Example 278, 4-(3-chloro-5-(trifluoromethyl)-1H-indazol-1-yl)-3-cyano-N-(thiazol-4-yl)benzenesulfonamide]",8.91
3,"O=S(=O)(Nc1cscn1)c1cc(F)c(-n2nc(Cl)c3cc(C(F)(F)F)ccc32)cc1F [Example 279, 4-(3-chloro-5-(trifluoromethyl)-1H-indazol-1-yl)-2,5-difluoro-N-(thiazol-4-yl)benzenesulfonamide]",> 10
4,"O=S(=O)(Nc1cscn1)c1cc(Cl)c(-n2nc(Cl)c3cc(C(F)(F)F)ccc32)cc1F [Example 280, 5-chloro-4-(3-chloro-5-(trifluoromethyl)-1H-indazol-1-yl)-2-fluoro-N-(thiazol-4-yl)benzenesulfonamide]",1.08
5,"O=S(=O)(Nc1ncns1)c1cc(F)c(-n2nc(Cl)c3cc(C(F)(F)F)ccc32)cc1F [Example 281, 4-(3-chloro-5-(trifluoromethyl)-1H-indazol-1-yl)-2,5-difluoro-N-(1,2,4-thiadiazol-5-yl)benzenesulfonamide]",3 to 10
6,"Cn1nccc1-c1nn(-c2cc(F)c(S(=O)(=O)Nc3cscn3)cc2Cl)c2ccc(Cl)cc12 [Example 282, 5-chloro-4-(5-chloro-3-(1-methyl-1H-pyrazol-5-yl)-1H-indazol-1-yl)-2-fluoro-N-(thiazol-4-yl)benzenesulfonamide]",1.65
7,"Cn1nccc1-c1nn(-c2cc(F)c(S(=O)(=O)Nc3ncns3)cc2Cl)c2ccc(Cl)cc12 [Example 283, 5-chloro-4-(5-chloro-3-(1-methyl-1H-pyrazol-5-yl)-1H-indazol-1-yl)-2-fluoro-N-(1,2,4-thiadiazol-5-yl)benzenesulfonamide]",> 3
8,"O=S(=O)(Nc1cscn1)c1cc(Cl)c(-n2nc(-c3cn[nH]c3)c3cc(Cl)ccc32)cc1F [Example 284, 5-chloro-4-(5-chloro-3-(1H-pyrazol-4-yl)-1H-indazol-1-yl)-2-fluoro-N-(thiazol-4-yl)benzenesulfonamide]",> 10
9,"Cn1nccc1-c1ccc2c(cnn2-c2cc(F)c(S(=O)(=O)Nc3cscn3)cc2Cl)c1 [Example 285, 5-chloro-2-fluoro-4-(5-(1-methyl-1H-pyrazol-5-yl)-1H-indazol-1-yl)-N-(thiazol-4-yl)benzenesulfonamide]",> 10
10,"Cn1nccc1-c1ccc2c(c1)c(Cl)nn2-c1cc(F)c(S(=O)(=O)Nc2cscn2)cc1Cl [Example 286, 5-chloro-4-(3-chloro-5-(1-methyl-1H-pyrazol-5-yl)-1H-indazol-1-yl)-2-fluoro-N-(thiazol-4-yl)benzenesulfonamide]",3 to 10
11,"O=S(=O)(Nc1cscn1)c1cc(Cl)c(-n2nc(-c3ccc(Cl)cc3F)c3cc(Cl)ccc32)cc1F [Example 287, 5-chloro-4-(5-chloro-3-(4-chloro-2-fluorophenyl)-1H-indazol-1-yl)-2-fluoro-N-(thiazol-4-yl)benzenesulfonamide]",8.25
12,"N#Cc1cc(Cl)c(-n2nc(-c3ccc(Cl)cc3F)c3cc(Cl)ccc32)cc1F [Example 288, 5-chloro-4-(5-chloro-3-(4-chloro-2-fluorophenyl)-1H-indazol-1-yl)-2-fluorobenzonitrile]",> 10
13,"Fc1cc(-n2nc(-c3ccc(Cl)cc3F)c3cc(Cl)ccc32)c(Cl)cc1-c1nnn[nH]1 [Example 289, 5-chloro-3-(4-chloro-2-fluorophenyl)-1-(2-chloro-5-fluoro-4-(1H-tetrazol-5-yl)phenyl)-1H-indazole]",> 10
14,"NC(=O)NNC(=O)c1cc(Cl)c(-n2nc(-c3ccc(Cl)cc3F)c3cc(Cl)ccc32)cc1F [Example 290, 2-(5-chloro-4-(5-chloro-3-(4-chloro-2-fluorophenyl)-1H-indazol-1-yl)-2-fluorobenzoyl)hydrazine-1-carboxamide]",11.2
15,"O=c1[nH]nc(-c2cc(Cl)c(-n3nc(-c4ccc(Cl)cc4F)c4cc(Cl)ccc43)cc2F)[nH]1 [Example 291, 5-(5-chloro-4-(5-chloro-3-(4-chloro-2-fluorophenyl)-1H-indazol-1-yl)-2-fluorophenyl)-2,4-dihydro-3H-1,2,4-triazol-3-one]",10.8
16,"NC(=O)c1cc(Cl)c(-n2nc(-c3ccc(Cl)cc3F)c3cc(Cl)ccc32)cc1F [Example 292, 5-chloro-4-(5-chloro-3-(4-chloro-2-fluorophenyl)-1H-indazol-1-yl)-2-fluorobenzamide]",> 10
17,"CC(=O)NC(=O)c1cc(Cl)c(-n2nc(-c3ccc(Cl)cc3F)c3cc(Cl)ccc32)cc1F [Example 293, N-acetyl-5-chloro-4-(5-chloro-3-(4-chloro-2-fluorophenyl)-1H-indazol-1-yl)-2-fluorobenzamide]",> 10
18,"O=C(Nc1nccs1)c1cc(Cl)c(-n2nc(-c3ccc(Cl)cc3F)c3cc(Cl)ccc32)cc1F [Example 294, 5-chloro-4-(5-chloro-3-(4-chloro-2-fluorophenyl)-1H-indazol-1-yl)-2-fluoro-N-(thiazol-2-yl)benzamide]",> 10
19,"Cc1cnc(NC(=O)c2cc(Cl)c(-n3nc(-c4ccc(Cl)cc4F)c4cc(Cl)ccc43)cc2F)s1 [Example 295, 5-chloro-4-(5-chloro-3-(4-chloro-2-fluorophenyl)-1H-indazol-1-yl)-2-fluoro-N-(5-methylthiazol-2-yl)benzamide]",> 10
20,"CCOC(=O)c1cnc(NC(=O)c2cc(Cl)c(-n3nc(-c4ccc(Cl)cc4F)c4cc(Cl)ccc43)cc2F)s1 [Example 296, ethyl 2-(5-chloro-4-(5-chloro-3-(4-chloro-2-fluorophenyl)-1H-indazol-1-yl)-2-fluorobenzamido)thiazole-5-carboxylate]",> 10
